Laboratory results reported in patent publication US20050049202A1, “Benzoic acid derivatives and uses thereof” (priority 2000, published 2005).

Experiments:
[1] = test system: THP-1 clone No. 53 (containing pGL2-Control); assay: Luciferase reporter gene assay, control clone No. 53; type: cell-based; settings: control clone 53
Text: (§1) One method for identifying a the ability of a compound of the present invention to induce mRNA degradation, comprises i) contacting the compound with a DNA expression system which in the absence of the compound is capable of expressing a protein having a detectable signal, wherein the mRNA which codes for the protein and which is transcribed from the expression system comprises at least one copy of a mRNA instability sequence; ii) measuring the detectable signal in the presence of the test compound and comparing the result obtained with a control. A related method can be used to compare compounds which induce mRNA degradation. This method comprises separately contacting the compounds with a DNA expression system which in the absence of the compounds is capable of expressing a protein having a detectable signal, wherein the mRNA which codes for the protein and which is transcribed from the expression system comprises at least one copy of a mRNA instability sequence, measuring the detectable signal in the presence of each test compound and comparing the signals obtained.
(§2) The THP-1 cell lines, clone No. 63 (containing PGL2_Neo30) and clone No. 53 (containing pGL2-Control) are grown, differentiated and stimulated with IFN-γ and LPS identical to normal THP-1 cells (for details see WO 00/39314). Compound is added 16 hrs after the addition of LPS and cell extracts are then taken 8 hrs later or as indicated. Luciferase activity was inhibited by 1 μM benzoic acid derivative on average by 40%, whereas up to 5 μM of benzoic acid derivative had no effects on the control clone No. 53.

[2] = test system: THP-1 clone No. 63 (containing PGL2_Neo30); assay: Luciferase reporter gene assay for compounds which destabilize mRNA, clone No. 63; type: cell-based; settings: clone 63
Text: as §1, §2

## COc1cccc(C)c1C(=O)OC[C@@H]1C=CC(=O)O1
[1]; 0.5 μM
  Luciferase reporter gene assay (% control): 89 % control
[1]; 1 μM
  Luciferase reporter gene assay (% control): 93 % control
[1]; 5 μM
  Luciferase reporter gene assay (% control): 99 % control
[2]; 0.5 μM
  Luciferase reporter gene assay (% control): 85 % control
[2]; 1 μM
  Luciferase reporter gene assay (% control): 79 % control
[2]; 5 μM
  Luciferase reporter gene assay (% control): 29 % control
